Measured values from US20200347043A1, “MODULATORS OF THE INTEGRATED STRESS PATHWAY” (Calico Life Sciences LLC, priority 2019, published 2020).

What follows are compounds tested on HEK293T cells carrying the ATF4 luciferase reporter (assay: ATF4-Luc assay (in vitro model of VWMD)). Conditions: Homo sapiens, HEK-293T, 1 μg/mL tunicamycin, 7 hours, One Glo luminescence.
Type: cell-based, human
Outline: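 Stable HEK293T line expressing firefly luciferase behind the human ATF4 5′-UTR, treated with 1 μg/mL tunicamycin plus compound for 7 hours. Luminescence read with One Glo; EC50 determined.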
For `O=C(NC12CC(c3ccn([C@H]4C[C@@H](OC(F)(F)F)C4)n3)(C1)C2)[C@H]1C[C@@H](O)c2cc(Cl)ccc2O1` [Compound 298, (2R,4R)-6-chloro-4-hydroxy-N-(3-{1-[cis-3-(trifluoromethoxy)cyclobutyl]-1H-pyrazol-3-yl}bicyclo[1.1.1]pentan-1-yl)-3,4-dihydro-2H-1-benzopyran-2-carboxamide], the EC50 was 50 to 250 nM.
For `O=C(NC12CC(c3csc(O[C@H]4C[C@@H](OC(F)(F)F)C4)n3)(C1)C2)[C@H]1C[C@@H](O)c2cc(Cl)ccc2O1` [Compound 300, (2R,4R)-6-chloro-4-hydroxy-N-[3-(2-{[cis-3-(trifluoromethoxy)cyclobutyl]oxy}-1,3-thiazol-4-yl)bicyclo[1.1.1]pentan-1-yl]-3,4-dihydro-2H-1-benzopyran-2-carboxamide], the EC50 was 50 to 250 nM.
Compound `O=C(NC12CC(Oc3nc([C@H]4C[C@@H](OC(F)(F)F)C4)cs3)(C1)C2)[C@H]1C[C@@H](O)c2cc(Cl)ccc2O1` [Compound 301, (2R,4R)-6-chloro-4-hydroxy-N-[3-({4-[cis-3-(trifluoromethoxy)cyclobutyl]-1,3-thiazol-2-yl}oxy)bicyclo[1.1.1]pentan-1-yl]-3,4-dihydro-2H-1-benzopyran-2-carboxamide] has an EC50 of 500 to 2000 nM.
`O=C(NC12CC(n3cc(-c4ccc(OC(F)(F)F)cc4)cn3)(C1)C2)[C@H]1C[C@@H](O)c2cc(Cl)ccc2O1` [Compound 302, (2R,4R)-6-chloro-4-hydroxy-N-(3-{4-[4-(trifluoromethoxy)phenyl]-1H-pyrazol-1-yl}bicyclo[1.1.1]pentan-1-yl)-3,4-dihydro-2H-1-benzopyran-2-carboxamide] was tested, and the EC50 was < 10 nM.
Work on `O=C(N[C@H]1CC[C@H](N2CCN(c3cnc(C(F)F)cn3)C2=O)CC1)[C@H]1C[C@@H](O)c2cc(Cl)ccc2O1` [Compound 303, (2R,4R)-6-chloro-N-[trans-4-{3-[5-(difluoromethyl)pyrazin-2-yl]-2-oxoimidazolidin-1-yl}cyclohexyl]-4-hydroxy-3,4-dihydro-2H-1-benzopyran-2-carboxamide] yielded an EC50 of 50 to 250 nM.
For `O=C(N[C@H]1C[C@H]2C[C@@H]1C[C@@H]2n1cnc(-c2ccc(F)c(F)c2)c1)[C@H]1C[C@@H](O)c2cc(Cl)ccc2O1` [Compound 304, (2R,4R)-6-chloro-N-{(1R,2S,4R,5S)-5-[4-(3,4-difluorophenyl)-1H-imidazol-1-yl]bicyclo[2.2.1]heptan-2-yl}-4-hydroxy-3,4-dihydro-2H-1-benzopyran-2-carboxamide], the EC50 was < 10 nM.
For `O=C(NC12CC(c3cnc(-c4ccc(Cl)c(F)c4)o3)(C1)C2)[C@H]1C[C@@H](O)c2cc(Cl)ccc2O1` [Compound 305, (2R,4R)-6-chloro-N-{3-[2-(4-chloro-3-fluorophenyl)-1,3-oxazol-5-yl]bicyclo[1.1.1]pentan-1-yl}-4-hydroxy-3,4-dihydro-2H-1-benzopyran-2-carboxamide], the EC50 was < 10 nM.
`O=C(NC12CC(N3CC(c4ccc(Cl)cc4)CC3=O)(C1)C2)[C@H]1C[C@@H](O)c2cc(Cl)ccc2O1` (stereo partly drawn) [Compound 307, (2R,4R)-6-chloro-N-{3-[4-(4-chlorophenyl)-2-oxopyrrolidin-1-yl]bicyclo[1.1.1]pentan-1-yl}-4-hydroxy-3,4-dihydro-2H-1-benzopyran-2-carboxamide] was tested, and the EC50 was < 10 nM.
`O=C(NC12CC(n3cc(-c4ccc(OC(F)(F)F)cn4)cn3)(C1)C2)[C@H]1C[C@@H](O)c2cc(Cl)ccc2O1` [Compound 308, (2R,4R)-6-chloro-4-hydroxy-N-(3-{4-[5-(trifluoromethoxy)pyridin-2-yl]-1H-pyrazol-1-yl}bicyclo[1.1.1]pentan-1-yl)-3,4-dihydro-2H-1-benzopyran-2-carboxamide] was tested, and the EC50 was < 10 nM.
With `O=C(N[C@H]1CC[C@H](N2CCN(c3ccc(C(F)(F)F)nc3)C2=O)CC1)[C@@H]1C[C@@H](O)c2cc(Cl)ccc2O1` [Compound 309, (2S,4R)-6-chloro-4-hydroxy-N-[trans-4-{2-oxo-3-[6-(trifluoromethyl)pyridin-3-yl]imidazolidin-1-yl}cyclohexyl]-3,4-dihydro-2H-1-benzopyran-2-carboxamide] the EC50 was > 2000 nM.
`O=C(N[C@H]1CC[C@H](N2CCN(c3ccc(C(F)(F)F)nc3)C2=O)CC1)[C@H]1C[C@@H](O)c2cc(Cl)ccc2O1` [Compound 310] was tested, and the EC50 was 50 to 250 nM.
